Test results published in article PMC10891534, “The Staphylococcus aureus ArlS Kinase Inhibitor Tilmicosin Has Potent Anti-Biofilm Activity in Both Static and Flow Conditions” (Microorganisms, 2024).
pIC50: −log10 of the molar value.

Target: ArlS histidine kinase (ArlSHK) (Staphylococcus aureus, UniProt Q9KJN3)
Assay: Kinase-Glo luminescent ATPase/kinase assay with purified ArlSHK, […] ATP, dose-response
Assay type: biochemical

ArlS histidine kinase (ArlSHK), sequence (Q9KJN3 239-451): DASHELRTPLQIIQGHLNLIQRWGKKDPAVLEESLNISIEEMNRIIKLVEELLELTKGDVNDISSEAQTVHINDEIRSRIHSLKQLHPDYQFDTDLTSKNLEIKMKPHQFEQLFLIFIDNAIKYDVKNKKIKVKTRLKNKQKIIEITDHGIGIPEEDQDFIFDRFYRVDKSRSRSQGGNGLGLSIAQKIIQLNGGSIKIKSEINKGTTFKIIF

**Q.** CC[C@H]1OC(=O)C[C@@H](O)[C@H](C)[C@@H](O[C@@H]2O[C@H](C)[C@@H](O)[C@H](N(C)C)[C@H]2O)[C@@H](CCN2C[C@H](C)C[C@H](C)C2)C[C@@H](C)C(=O)/C=C/C(C)=C/[C@@H]1CO[C@@H]1O[C@H](C)[C@@H](O)[C@@H](OC)[C@H]1OC [tilmicosin] was tested. Which pIC50 did it give?
**A.** 5.96
